In patent US4652638A, “3-O-acyl-4"-deoxydesmycosin derivatives” (Toyo Jozo Kabushiki Kaisha, priority 1983, dated 1987):
Converted amounts (≈) assume the structure as drawn. Read-outs that look alike come from different tables or passages of the source.

Columns and labels:
Assay in all cases: MIC (minimum inhibitory concentration)
Assay type in all cases: cell-based
[1] = system: Streptococcus pyogenes N.Y.5
Sarcina lutea ATCC 9341 = details: Micrococcus luteus, ATCC9341; Sarcina lutea ATCC 9341; read-out: MIC
Shigella sonnei E33 = system: Shigella sonnei E33
[2] = system: Bacillus subtilis ATCC 6633; details: ATCC6633
[3] = system: Pseudomonas aeruginosa IAM 1095; details: IAM1095
[4] = system: Streptococcus faecalis 1501; details: Enterococcus faecalis
[5] = system: Staphylococcus aureus 0127*; details: Staphylococcus aureus
[6] = system: Salmonella enteritidis Gaertner; details: Salmonella enterica
[7] = system: Staphylococcus aureus MS353 C36; details: MS353C36
[8] = system: Escherichia coli NIHJ-JC2; details: NIHJJC2
Salmonella typhosa H901 = details: Salmonella enterica, TYPHOSA
[9] = system: Staphylococcus aureus MS353
[10] = system: Staphylococcus aureus ATCC 6538P; details: ATCC6538P
[11] = system: Streptococcus pyogenes 1022*; details: Streptococcus pyogenes
[12] = system: Staphylococcus aureus MS353 A0*; details: * clinical isolate, macrolide-resistant bacteria A group
[13] = system: Streptococcus agalaactiae 1020
Proteus vulgaris OX19 = system: Proteus vulgaris OX19
[14] = system: Staphylococcus epidermidis sp-al-1; details: SPAL1
[15] = system: Klebsiella pneumoniae ATCC 10031; details: ATCC10031
Serratia marcescens = system: Serratia marcescens
[16] = system: Micrococcus flavus ATCC 10240; details: ATCC10240
[17] = system: Corynebacterium diphtheriae P.Y.8
[18] = system: Shigella flexineri type 3a; details: TYPE3A
Escherichia coli B = system: Escherichia coli B
[19] = system: Staphylococcus aureus 0119*; details: Staphylococcus aureus
[20] = Escherichia coli NIHJ-JC2, read-out: MIC
[21] = Escherichia coli B, read-out: MIC

Compound | MIC [1] [µg/mL] | MIC (Sarcina lutea ATCC 9341) [µg/mL] | MIC (Shigella sonnei E33) [µg/mL] | MIC ([2]; Bacillus subtilis) [µg/mL] | MIC ([3]; Pseudomonas aeruginosa) [µg/mL] | MIC [4]; 1501 [µg/mL] | MIC [5] [µg/mL] | MIC ([6]; ENTERITIDIS) [µg/mL] | MIC [7] [µg/mL] | MIC [8, 20] [µg/mL] | MIC (Salmonella typhosa H901) [µg/mL] | MIC [9] [µg/mL] | MIC [10] [µg/mL] | MIC [11] [µg/mL] | MIC [12] [µg/mL] | MIC ([13]; Streptococcus, 1020) [µg/mL] | MIC (Proteus vulgaris OX19) [µg/mL] | MIC ([14]; Staphylococcus epidermidis) [µg/mL] | MIC [18] [µg/mL] | MIC [19] [µg/mL] | also measured
CC[C@H]1OC(=O)[C@H](C)[C@@H](O[C@H]2C[C@@](C)(OC)[C@@H](O)[C@H](C)O2)[C@H](C)[C@@H](O[C@@H]2O[C@H](C)C[C@H](N(C)C)[C@H]2O)[C@](C)(O)C[C@@H](C)C(=O)[C@H](C)[C@@H](O)[C@]1(C)O [Erythromycin, reference compound] | ≤ 0.05 | ≤ 0.05 | 100 (≈ 136 µM) | 0.1 (≈ 0.136 µM) | 100 (≈ 136 µM) | 0.2 (≈ 0.273 µM) | > 100 | 100 (≈ 136 µM) | > 100 | 100 (≈ 136 µM) | 100 (≈ 136 µM) | 0.2 (≈ 0.273 µM) | 0.2 (≈ 0.273 µM) | > 100 | > 100 | ≤ 0.05 | 50 (≈ 68.1 µM) | 0.2 (≈ 0.273 µM) | 12.5 (≈ 17 µM) | > 100 | MIC ([15]; Klebsiella pneumoniae): 6.3 µg/mL (≈ 8.58 µM); MIC (Serratia marcescens): 100 µg/mL (≈ 136 µM); MIC ([16]; Micrococcus flavus): 0.1 µg/mL (≈ 0.136 µM); MIC [17]: ≤ 0.05 µg/mL; MIC (Escherichia coli B; [21]): > 100 µg/mL
CCC1OC(=O)CC(OC(=O)CC(C)C)C(C)C(OC2OC(C)C(O)C(N(C)C)C2O)C(CC=O)CC(C)C(=O)C=CC(C)=CC1COC1OC(C)CC(OC)C1OC (centres unmarked) [Example 4, 3-O-isovaleryl-4"-deoxydesmycosin] | ≤ 0.05 | ≤ 0.05 | > 100 |  |  |  | > 100 |  | 0.4 (≈ 0.476 µM) | > 100 | > 100 | 0.4 (≈ 0.476 µM) | 0.4 (≈ 0.476 µM) | > 100 | > 100 |  |  |  | 50 (≈ 59.5 µM) | > 100 | MIC ([2]; Bacillus subtilis ATCC 6633, read-out: MIC): 0.2 µg/mL (≈ 0.238 µM); MIC ([3]; Pseudomonas aeruginosa IAM 1095, read-out: MIC): > 100 µg/mL; MIC ([4]; Streptococcus faecalis 1501, read-out: MIC): 0.4 µg/mL (≈ 0.476 µM); MIC ([6]; Salmonella enteritidis Gaertner, read-out: MIC): > 100 µg/mL; MIC ([13]; Streptococcus agalaactiae 1020, read-out: MIC): ≤ 0.05 µg/mL; MIC (Proteus vulgaris OX19; read-out: MIC): 50 µg/mL (≈ 59.5 µM); MIC ([14]; Staphylococcus epidermidis sp-al-1, read-out: MIC): 0.1 µg/mL (≈ 0.119 µM); MIC ([15]; Klebsiella pneumoniae ATCC 10031, read-out: MIC): 25 µg/mL (≈ 29.8 µM); MIC (Serratia marcescens; read-out: MIC): > 100 µg/mL; MIC ([16]; Micrococcus flavus ATCC 10240, read-out: MIC): ≤ 0.05 µg/mL; MIC ([17]; read-out: MIC): ≤ 0.05 µg/mL; MIC (Escherichia coli B; [21]): > 100 µg/mL
CC[C@H]1OC(=O)C[C@@H](O)[C@H](C)[C@@H](O[C@@H]2O[C@H](C)[C@@H](O[C@H]3C[C@@](C)(O)[C@@H](O)[C@H](C)O3)[C@H](N(C)C)[C@H]2O)[C@@H](CC=O)C[C@@H](C)C(=O)/C=C/C(C)=C/[C@@H]1CO[C@@H]1O[C@H](C)[C@@H](O)[C@@H](OC)[C@H]1OC [Tylosin, reference compound] | 0.1 (≈ 0.109 µM) | ≤ 0.05 | > 100 | 0.2 (≈ 0.218 µM) | > 100 | 0.8 (≈ 0.873 µM) | > 100 | > 100 | 0.4 (≈ 0.437 µM) |  | > 100 | 0.8 (≈ 0.873 µM) |  | > 100 | > 100 | 0.2 (≈ 0.218 µM) | > 100 | 0.4 (≈ 0.437 µM) | 50 (≈ 54.6 µM) | > 100 | MIC ([8]; Escherichia coli): > 100 µg/mL; MIC ([15]; Klebsiella pneumoniae): 50 µg/mL (≈ 54.6 µM); MIC (Serratia marcescens): > 100 µg/mL; MIC ([16]; Micrococcus flavus): ≤ 0.05 µg/mL; MIC [17]: ≤ 0.05 µg/mL; MIC (Escherichia coli B; Escherichia coli): > 100 µg/mL
